From US20260116845A1, “LIPIDS AND COMPOSITIONS THEREOF” (Kernal Biologics, Inc., priority 2023, published 2026)

Experiments:
Assay type in all cases: cell-based
Settings in all cases: 200 ng Fluc mRNA-LNP, 24 hours; Table 4
AML12 Cell Line = assay: Transfection of AML12 Cell Line with FLuc mRNA LNPs (ONE-Glo EX luciferase signal)
Description: (§1) mRNA encapsulated lipid nanoparticles (mRNA LNPs) were formulated using microfluidic mixing with a PNI Ignite instrument. Briefly, lipids (ionizable: structural: helper: PEG) were dissolved in ethanol and mixed with and aqueous solution of mRNA. These mRNA-loaded dispersions were then neutralized via a buffer exchange with a pre-determined buffer overnight. Afterwards, formed LNPs were concentrated with Amicon filter centrifugation, filtered, concentration of mRNA determined through a ribogreen assay, and frozen at −80° C. until use.
(§2) Cell lines were grown to confluence in T75 flasks using complete media of DMEM-F12 for AML12 and DMEM for both B16F10 and MC38.K. Cells were plated in a white 96 flat-well plate (AML12=20,000 cells/well, B16F10 and MC38.K=5,000 cells/well) with their respected media. Lipid nanoparticles were first diluted to 50 μg/ml using Opti-MEM and pre-incubated with mouse serum for 30 minutes to give an LNP concentration of 8 μg/ml. Cell media was replaced with Opti-MEM and LNPs were added to cells (200 ng of mRNA-LNP), placed back in the incubator, and allowed to transfect for 24 hours. Afterwards, 100 μl of Promega's ONE-Glo™ EX Luciferase Assay System or Promega's CellTiter-Glo® Luminescent Cell Viability Assay was added and mixed in their respective wells, followed by recording luminescence signals on a Thermo Scientific Varioskan LUX multimode microplate reader. The results are shown in FIG. 1, FIG. 2, FIG. 3, FIG. 4, FIG. 5, FIG. 6, FIG. 10, FIG. 11, and FIG. 21.

B16F10 Cell Line = assay: Transfection of B16F10 Cell Line with FLuc mRNA LNPs (ONE-Glo EX luciferase signal)
Description: as §1, §2

MC38.K Cell Line = assay: Transfection of MC38.K Cell Line with FLuc mRNA LNPs (ONE-Glo EX luciferase signal)
Description: as §1, §2

CCCCCCCCCOC(=O)CCCCCN(CCO)CCCCCC(=O)OCCCCCCCCC [Compound 50]
Total Luciferin Signal (RLU) In Vitro - AML12 (AML12 Cell Line): 1.54E+04 RLU
Total Luciferin Signal (RLU) In Vitro - B16F10 (B16F10 Cell Line): 1.30E+04 RLU
Total Luciferin Signal (RLU) In Vitro - MC38.K (MC38.K Cell Line): 1.85E+04 RLU

CCCCCCCCC(CCCCCCCC)OC(=O)CCCCCN(CCO)CCCCCC(=O)OC(CCCCCCCC)CCCCCCCC [Compound 51]
Total Luciferin Signal (RLU) In Vitro - AML12 (AML12 Cell Line): 1.01E+06 RLU
Total Luciferin Signal (RLU) In Vitro - B16F10 (B16F10 Cell Line): 1.28E+06 RLU
Total Luciferin Signal (RLU) In Vitro - MC38.K (MC38.K Cell Line): 1.70E+06 RLU

CCCCCCC(CCCCCCCCF)COC(=O)CCCCCCCN(CCO)CCCCCCC(C)C(=O)OCCCCCCCCC(C)C (stereo not drawn) [Compound 73, 9-methyldecyl 8-((8-((10-fluoro-2-hexyldecyl)oxy)-8-oxooctyl)(2-hydroxyethyl)amino)-2-methyloctanoate]
Total Luciferin Signal (RLU) In Vitro - AML12 (AML12 Cell Line): 2.93E+06 RLU
Total Luciferin Signal (RLU) In Vitro - B16F10 (B16F10 Cell Line): 7.08E+06 RLU
Total Luciferin Signal (RLU) In Vitro - MC38.K (MC38.K Cell Line): 1.77E+07 RLU

CCCCCCCCCOC(=O)C(C)CCCCCCN(CCO)CCCCCCCCOC(=O)C(CCCC)CCCCCCF (stereo not drawn) [Compound 74, 8-((2-hydroxyethyl)(7-methyl-8-(nonyloxy)-8-oxooctyl)amino)octyl 2-butyl-8-fluorooctanoate]
Total Luciferin Signal (RLU) In Vitro - AML12 (AML12 Cell Line): 2.80E+04 RLU
Total Luciferin Signal (RLU) In Vitro - B16F10 (B16F10 Cell Line): 6.66E+04 RLU
Total Luciferin Signal (RLU) In Vitro - MC38.K (MC38.K Cell Line): 1.94E+05 RLU

CCCCCCCCC(CCCCCCCCF)OC(=O)CCCCCCCN(CCCCCCC(C)C(=O)OCCCCCCCCC(C)C)CC(C)CO (stereo not drawn) [Compound 75, 9-methyldecyl 8-((8-((1-fluoroheptadecan-9-yl)oxy)-8-oxooctyl)(3-hydroxy-2-methylpropyl)amino)-2-methyloctanoate]
Total Luciferin Signal (RLU) In Vitro - AML12 (AML12 Cell Line): 1.59E+04 RLU
Total Luciferin Signal (RLU) In Vitro - B16F10 (B16F10 Cell Line): 2.15E+04 RLU
Total Luciferin Signal (RLU) In Vitro - MC38.K (MC38.K Cell Line): 4.51E+04 RLU

CCCCCCCCCOC(=O)C(C)CCCCCCN(CCCCO)CCCCCCCCOC(=O)C(CCCC)CCCCCCF (stereo not drawn) [Compound 76, 8-((4-hydroxybutyl)(7-methyl-8-(nonyloxy)-8-oxooctyl)amino)octyl 2-butyl-8-fluorooctanoate]
Total Luciferin Signal (RLU) In Vitro - AML12 (AML12 Cell Line): 3.79E+04 RLU
Total Luciferin Signal (RLU) In Vitro - B16F10 (B16F10 Cell Line): 7.14E+04 RLU
Total Luciferin Signal (RLU) In Vitro - MC38.K (MC38.K Cell Line): 2.38E+05 RLU

CCCCCCCCCOC(=O)CCCCCCCN(CCCCO)CCCCCCCC(=O)OCC(CCCCCCCC)CCCCCCCCF (stereo not drawn) [Compound 77, 10-fluoro-2-octyldecyl 8-((4-hydroxybutyl)(8-(nonyloxy)-8-oxooctyl)amino)octanoate]
Total Luciferin Signal (RLU) In Vitro - AML12 (AML12 Cell Line): 5.38E+06 RLU
Total Luciferin Signal (RLU) In Vitro - B16F10 (B16F10 Cell Line): 7.80E+06 RLU
Total Luciferin Signal (RLU) In Vitro - MC38.K (MC38.K Cell Line): 3.24E+07 RLU

CCCCCCCCCOC(=O)C(C)CCCCCCN(CCO)CCCCCCCC(=O)OCC(CCCCCC)CCCCCCCCF (stereo not drawn) [Compound 78, nonyl 8-((8-((10-fluoro-2-hexyldecyl)oxy)-8-oxooctyl)(2-hydroxyethyl)amino)-2-methyloctanoate]
Total Luciferin Signal (RLU) In Vitro - AML12 (AML12 Cell Line): 2.42E+06 RLU
Total Luciferin Signal (RLU) In Vitro - B16F10 (B16F10 Cell Line): 6.65E+06 RLU
Total Luciferin Signal (RLU) In Vitro - MC38.K (MC38.K Cell Line): 2.21E+07 RLU

CCCCC(CCCCCCF)C(=O)OCCCCCCCCN(CCO)CCCCCCC(C)C(=O)OCCCCCCCCC(C)C (stereo not drawn) [Compound 79, 8-((2-hydroxyethyl)(7-methyl-8-((9-methyldecyl)oxy)-8-oxooctyl)amino)octyl 2-butyl-8-fluorooctanoate]
Total Luciferin Signal (RLU) In Vitro - AML12 (AML12 Cell Line): 7.26E+05 RLU
Total Luciferin Signal (RLU) In Vitro - B16F10 (B16F10 Cell Line): 1.84E+06 RLU
Total Luciferin Signal (RLU) In Vitro - MC38.K (MC38.K Cell Line): 1.65E+07 RLU

CCCCCCCCCOC(=O)CCCCCCCN(CCO)CCCCCCCC(=O)OCC(CCCCCCCC)CCCCCCCCF (stereo not drawn) [Compound 80, 10-fluoro-2-octyldecyl 8-((2-hydroxyethyl)(8-(nonyloxy)-8-oxooctyl)amino)octanoate]
Total Luciferin Signal (RLU) In Vitro - AML12 (AML12 Cell Line): 3.01E+06 RLU
Total Luciferin Signal (RLU) In Vitro - B16F10 (B16F10 Cell Line): 2.97E+06 RLU
Total Luciferin Signal (RLU) In Vitro - MC38.K (MC38.K Cell Line): 1.95E+07 RLU

CCCCCCCCCOC(=O)CCCCCCCN(CCCCO)CCCCCCCCOC(=O)C(CCCC)CCCCCCF (stereo not drawn) [Compound 81, 8-((4-hydroxybutyl)(8-(nonyloxy)-8-oxooctyl)amino)octyl 2-butyl-8-fluorooctanoate]
Total Luciferin Signal (RLU) In Vitro - AML12 (AML12 Cell Line): 4.91E+04 RLU
Total Luciferin Signal (RLU) In Vitro - B16F10 (B16F10 Cell Line): 5.85E+04 RLU
Total Luciferin Signal (RLU) In Vitro - MC38.K (MC38.K Cell Line): 2.47E+06 RLU

CCCCCCCCCOC(=O)CCCCCCCN(CCO)CCCCCCCCOC(=O)C(CCCC)CCCCCCF (stereo not drawn) [Compound 82, 8-((2-hydroxyethyl)(8-(nonyloxy)-8-oxooctyl)amino)octyl 2-butyl-8-fluorooctanoate]
Total Luciferin Signal (RLU) In Vitro - AML12 (AML12 Cell Line): 1.48E+04 RLU
Total Luciferin Signal (RLU) In Vitro - B16F10 (B16F10 Cell Line): 1.70E+04 RLU
Total Luciferin Signal (RLU) In Vitro - MC38.K (MC38.K Cell Line): 6.18E+04 RLU

CCCCCCCCCOC(=O)CCCCCCCN(CCO)CCCCCCCC(=O)OC(CCCCCCCC)CCCCCCCCCl (stereo not drawn) [Compound 83, 1-chloroheptadecan-9-yl 8-((2-hydroxyethyl)(8-(nonyloxy)-8-oxooctyl)amino)octanoate]
Total Luciferin Signal (RLU) In Vitro - AML12 (AML12 Cell Line): 1.85E+05 RLU
Total Luciferin Signal (RLU) In Vitro - B16F10 (B16F10 Cell Line): 4.41E+05 RLU
Total Luciferin Signal (RLU) In Vitro - MC38.K (MC38.K Cell Line): 2.14E+06 RLU

CCCCCCCCCOC(=O)CCCCCCCN(CCO)CCCCCCCC(=O)OC(CCCCCCCF)CCCCCCCF [Compound 84, 1,15-difluoropentadecan-8-yl 8-((2-hydroxyethyl)(8-(nonyloxy)-8-oxooctyl)amino)octanoate]
Total Luciferin Signal (RLU) In Vitro - AML12 (AML12 Cell Line): 5.18E+04 RLU
Total Luciferin Signal (RLU) In Vitro - B16F10 (B16F10 Cell Line): 8.32E+04 RLU
Total Luciferin Signal (RLU) In Vitro - MC38.K (MC38.K Cell Line): 5.52E+05 RLU
